Experimental data reported in US20240182549A1, “PEPTIDES AND ANTIBODY FUSIONS THAT BIND TO SARS-COV-2 AND METHODS OF USING SAME” (priority 2021, published 2024).
Entries after “also recorded” stand apart in the source; their conditions may differ. Ends that are not written are not given here.

Experiments:
[1] = test system: SARS-CoV-2 strain 2019 n-CoV/USA_WA1/2020; format: cell-based
SARS-CoV-2 RBD (RBD-Fc) = SARS-CoV-2 RBD (RBD-Fc) (Severe acute respiratory syndrome coronavirus 2, UniProt P0DTC2)
[2] = test system: SARS-CoV-2 S protein pseudotyped virus-like particles; format: cell-based
[3] = test system: B.1.1.529 (Omicron) S protein RBD; format: binding, SARS-CoV-2

Row | Substance | improvement in 15033 neutralization efficiency (in words) [1] | binding of peptide-phage to RBD (in words) (SARS-CoV-2 RBD (RBD-Fc)) | neutralization potency compared to parent IgG (in words) [2] | potency compared to 15033 parental (in words) [1] | EC50 of phage-displayed peptide (SARS-CoV-2 RBD (RBD-Fc)) [A268 nm absorbance units] | binding to omicron RBD (in words) [3]
1 | p16 (DFDFAENWMEQLKVML; not fully specified) | most marked improvement | no measurable interaction | marked improvement in neutralization potency |  |  | 
2 | p96 (TAYECFQFPEWSCESE; not fully specified; cysteine pairing not given here) |  | no measurable interaction |  | no apparent improvement in potency; also recorded: decreased potency |  | 
3 | p102 (ECWEWSYQLQEWSPCP; not fully specified; cysteine pairing not given here) | second best | bound | marked improvement in neutralization potency |  | 0.04 | equivalent binding efficiency
